Reference: patent US9670545B2, “Methods and kits for treating and classifying individuals at risk of or suffering from TRAP1 change-of-function” (Courtagen Life Sciences, Inc., priority 2013, dated 2017)

Test system: patient with I253V in the TRAP1 ATPase domain
Assay: Case Report 1: clinical response of a patient with I253V in the TRAP1 ATPase domain to supplementation
Assay type: in vivo, human
Details: single patient
Experimental: A person was referred to the inventors because of a failure-to-thrive and hypoglycemia. Additional problems included constipation, temperature instability, tachycardia, delayed gastric emptying (confirmed by Scintiscan), almost-daily pain (headaches, abdominal pain, leg cramps), chronic fatigue (sleeping up to 22 hours a day), anemia (requiring multiple transfusions), repetitive episodes of right arm dyskinesia (2 minutes each, twice a week), and neurodevelopmental issues (gross motor delay, auditory processing problem, and memory defects, but cognitive delay is only 6 months). […] Episodic dyskinesia later resolved with L-arginine supplementation. However, gastrointestinal dysfunction worsened, necessitating a gastrostomy tube, followed by a jejunostomy tube. […] Pertinent results of an extensive work-up include normal brain MR, normal video-EEG, severe free carnitine deficiency (<4 micromolar, normal >19; total carnitine 17), trace elevations on urine organic acids, respiratory alkalosis (hyperventilation), and hypoglycemia (even while receiving adequate jejunal feeds or parental nutrition). […] After finding the I253V in the TRAP1 ATPase domain, antioxidant therapy was intensified, and results are pending.

N=C(N)NCCC[C@H](N)C(=O)O [L-arginine]
Episodic dyskinesia (repetitive episodes of right arm dyskinesia): resolved
